Measured values as given in ChEMBL document CHEMBL5528011, “Recent progress and applications of small molecule inhibitors of Keap1-Nrf2 axis for neurodegenerative diseases” (Eur J Med Chem, 2024).
pIC50, pKd, pKi: −log10 of the molar value.

Legend:
BV-2 = assay: Antiinflammatory activity against mouse BV-2 cells assessed as reduction in LPS-induced NO production at 20 uM incubated for 24 hrs by Griess reagent based assay relative to control; assay type: functional; set-up: scale not given: the % may be the effect or the level left
[1] = Induction of NQO1 expression in mouse Hepa1c1c7 cells; assay type: functional
Keap1/Nrf2 [2] = molecular target: Keap1/Nrf2 (Homo sapiens, UniProt Q14145); assay: Inhibition of human Keap1 KELCH domain (321 to 609 residues) expressed in Escherichia coli BL21 DE3 pLysS cells/Nrf2 (unknown origin) protein-protein interaction preincubated with Keap1 for 1 hr followed by Nrf2 addition and measured after 1 hr by fluorescence polarization assay
HepG2-ARE-C8 = assay: Activation of Nrf2-ARE pathway in human HepG2-ARE-C8 cells measured for 24 hrs by ARE-luciferase assay; assay type: cell-based; conditions: filed as activator
Keap1/Nrf2 [3] = molecular target: T1, Keap1/Nrf2 (Homo sapiens, UniProt Q14145+Q16236); assay: Binding affinity to human Keap1-Nrf2 protein-protein interaction assessed as inhibition constant incubated for 60 mins by fluorescent polarization assay
Keap1/Nrf2 [4] = molecular target: T1, Keap1/Nrf2; assay: Binding affinity to human Keap1-Nrf2 protein-protein interaction assessed as dissociation constant; assay type: protein assay
[5] = molecular target: T2, Nuclear factor erythroid 2-related factor 2 (Mus musculus) (UniProt Q60795); assay: Activation of Nrf2 in mouse BV-2 cells assessed as increase in GCLC mRNA expression by measuring fold change at 5 uM measured for 3 hrs by qRT-PCR analysis; assay type: cell-based; conditions: filed as activator
T2 sequence (whole entry): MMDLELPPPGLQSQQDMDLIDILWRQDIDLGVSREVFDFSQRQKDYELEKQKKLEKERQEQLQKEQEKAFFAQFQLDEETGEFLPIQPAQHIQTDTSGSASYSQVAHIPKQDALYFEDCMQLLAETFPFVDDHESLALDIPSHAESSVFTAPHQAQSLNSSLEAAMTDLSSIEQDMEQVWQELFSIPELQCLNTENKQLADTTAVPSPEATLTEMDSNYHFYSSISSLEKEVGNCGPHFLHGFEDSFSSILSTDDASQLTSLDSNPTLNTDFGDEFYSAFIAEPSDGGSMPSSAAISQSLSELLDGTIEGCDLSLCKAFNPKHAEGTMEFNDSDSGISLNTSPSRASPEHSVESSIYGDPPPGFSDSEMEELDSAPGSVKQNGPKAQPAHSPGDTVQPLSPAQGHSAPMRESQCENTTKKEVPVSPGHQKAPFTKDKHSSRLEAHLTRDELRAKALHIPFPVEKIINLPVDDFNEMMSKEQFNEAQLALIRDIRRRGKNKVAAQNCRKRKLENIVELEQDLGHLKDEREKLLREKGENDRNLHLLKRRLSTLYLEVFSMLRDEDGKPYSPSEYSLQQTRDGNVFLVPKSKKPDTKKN

[6] = molecular target: T2, Nuclear factor erythroid 2-related factor 2 (Mus musculus); assay: Activation of Nrf2 in mouse BV-2 cells assessed as increase in GCLM mRNA expression by measuring fold change at 5 uM incubated for 3 hrs by qRT-PCR analysis; assay type: cell-based; conditions: filed as activator
[7] = molecular target: T2, Nuclear factor erythroid 2-related factor 2 (Mus musculus); assay: Activation of Nrf2 pathway in mouse BV-2 cells assessed as fold increase in HO-1 level at 5 uM measured after 3 hrs by Western blot analysis; assay type: cell-based; conditions: filed as activator
[8] = molecular target: Amyloid-beta precursor protein (Homo sapiens, UniProt P05067); assay: Inhibition of amyloid beta 42 (unknown origin) self aggregation by Thioflavin T-based fluorometric assay
Amyloid-beta precursor protein, sequence (P05067 whole entry): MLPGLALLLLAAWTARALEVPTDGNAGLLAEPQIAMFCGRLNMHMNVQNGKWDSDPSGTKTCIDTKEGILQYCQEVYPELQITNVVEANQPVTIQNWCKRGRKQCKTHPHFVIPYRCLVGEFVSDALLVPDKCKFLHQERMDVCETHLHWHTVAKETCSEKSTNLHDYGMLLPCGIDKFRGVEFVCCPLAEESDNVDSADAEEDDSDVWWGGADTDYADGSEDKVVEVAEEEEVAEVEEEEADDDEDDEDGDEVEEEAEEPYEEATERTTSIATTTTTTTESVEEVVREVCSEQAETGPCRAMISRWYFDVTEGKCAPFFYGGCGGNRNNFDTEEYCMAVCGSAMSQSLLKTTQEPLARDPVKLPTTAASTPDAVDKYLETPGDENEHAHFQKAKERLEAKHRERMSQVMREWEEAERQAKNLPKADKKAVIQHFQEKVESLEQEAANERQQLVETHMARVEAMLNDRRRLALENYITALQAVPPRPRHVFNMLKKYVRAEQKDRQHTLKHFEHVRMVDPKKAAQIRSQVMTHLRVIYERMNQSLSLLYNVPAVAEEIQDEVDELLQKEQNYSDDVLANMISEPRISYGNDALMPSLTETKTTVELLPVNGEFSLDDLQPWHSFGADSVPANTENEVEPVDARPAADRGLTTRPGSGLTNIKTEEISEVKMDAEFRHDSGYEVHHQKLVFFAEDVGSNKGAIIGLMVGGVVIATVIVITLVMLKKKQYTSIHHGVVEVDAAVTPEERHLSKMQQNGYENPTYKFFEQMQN

T1 sequence (Q16236 whole entry): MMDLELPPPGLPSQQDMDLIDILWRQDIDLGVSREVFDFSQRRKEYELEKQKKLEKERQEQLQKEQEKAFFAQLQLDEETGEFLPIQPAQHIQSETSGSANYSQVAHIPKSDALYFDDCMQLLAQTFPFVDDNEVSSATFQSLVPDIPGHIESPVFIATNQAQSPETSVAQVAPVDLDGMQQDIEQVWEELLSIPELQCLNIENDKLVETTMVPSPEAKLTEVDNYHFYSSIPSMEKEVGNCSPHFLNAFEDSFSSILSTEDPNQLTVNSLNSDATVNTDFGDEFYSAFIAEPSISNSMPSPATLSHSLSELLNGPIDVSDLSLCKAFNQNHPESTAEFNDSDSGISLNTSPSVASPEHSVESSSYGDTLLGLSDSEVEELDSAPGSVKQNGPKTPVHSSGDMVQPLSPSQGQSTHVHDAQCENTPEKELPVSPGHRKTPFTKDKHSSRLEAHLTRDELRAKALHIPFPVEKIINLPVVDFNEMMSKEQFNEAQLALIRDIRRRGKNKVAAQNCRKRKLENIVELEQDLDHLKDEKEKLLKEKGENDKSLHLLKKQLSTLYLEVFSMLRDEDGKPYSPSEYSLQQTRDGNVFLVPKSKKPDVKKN
T1 sequence (Q14145 whole entry): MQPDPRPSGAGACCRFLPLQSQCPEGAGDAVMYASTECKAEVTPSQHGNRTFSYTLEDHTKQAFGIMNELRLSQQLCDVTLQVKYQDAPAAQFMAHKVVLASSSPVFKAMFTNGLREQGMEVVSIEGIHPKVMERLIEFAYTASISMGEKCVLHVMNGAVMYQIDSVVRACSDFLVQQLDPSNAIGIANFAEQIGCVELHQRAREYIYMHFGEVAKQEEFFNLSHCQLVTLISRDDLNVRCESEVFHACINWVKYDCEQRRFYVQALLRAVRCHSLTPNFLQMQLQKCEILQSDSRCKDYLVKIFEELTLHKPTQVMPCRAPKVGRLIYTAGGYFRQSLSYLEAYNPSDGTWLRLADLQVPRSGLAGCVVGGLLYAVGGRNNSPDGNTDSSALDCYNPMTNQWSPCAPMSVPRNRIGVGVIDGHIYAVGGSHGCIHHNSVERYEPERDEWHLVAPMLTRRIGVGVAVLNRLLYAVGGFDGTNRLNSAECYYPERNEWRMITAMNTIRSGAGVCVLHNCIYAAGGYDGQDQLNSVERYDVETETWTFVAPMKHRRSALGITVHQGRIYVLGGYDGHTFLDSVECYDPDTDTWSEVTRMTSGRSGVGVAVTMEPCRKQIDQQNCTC
Keap1/Nrf2 (Homo sapiens, UniProt Q14145), sequence (Q16236 whole entry, the tested form may be a part): as the sequence (Q16236 whole entry) above
Keap1/Nrf2 (Homo sapiens, UniProt Q14145), sequence (Q14145 whole entry, the tested form may be a part): as the sequence (Q14145 whole entry) above

Work on `COc1ccccc1S(=O)(=O)/C=C/c1ccccc1Cl` yielded an Activity (BV-2) of 15.2%.
With `CC1(C)CC[C@]2(C#N)CC[C@]3(C)C(C(=O)C=C4[C@@]5(C)C=C(C#N)C(=O)C(C)(C)[C@@H]5CC[C@]43C)[C@@H]2C1` (some centres undefined) the CD [1] was 0.00027 µM.
Work on `COc1ccc(S(=O)(=O)Nc2ccc(N(CC(N)=O)S(=O)(=O)c3ccc(OC)cc3)c3ccccc23)cc1` yielded a pIC50 (Keap1/Nrf2 [2]) of 7.59 and an Activity (HepG2-ARE-C8) of 1.8 nM.
`O=C(NCC1CCCO1)C1CCC([N+](=O)[O-])S1` (centres undefined) gave a pKi (Keap1/Nrf2 [3]) of 5.21.
For `COc1ccccc1S(=O)(=O)/C=C/c1cccc(Cl)c1`, the Activity (BV-2) was 32.1%.
Work on `Nc1ccc(Sc2nnc(COc3ccccc3)n2-c2ccccc2)nc1` yielded a CD [1] of 2.5 µM.
In the case of `COc1ccccc1S(=O)(=O)/C=C/c1ccccc1C(F)(F)F`, the Activity (BV-2) was 29.9%.
In the case of `COC(=O)[C@]12CCC(C)(C)C[C@H]1C1C(=O)C=C3[C@@]4(C)C=C(C(=O)O)C(=O)C(C)(C)[C@@H]4CC[C@@]3(C)[C@]1(C)CC2` (some centres undefined), the CD [1] was 0.018 µM.
`O=[N+]([O-])c1ccc(Sc2nnc(COc3ccccc3)n2-c2ccccc2)nc1` gave a CD [1] of 2.5 µM.
In the case of `CNC(=O)[C@]12CCC(C)(C)C[C@H]1C1C(=O)C=C3[C@@]4(C)C=C(C#N)C(=O)C(C)(C)[C@@H]4CC[C@@]3(C)[C@]1(C)CC2` (some centres undefined), the CD [1] was 0.001 µM.
In the case of `O=[N+]([O-])c1ccc(Sc2nnc(COc3ccccc3)n2-c2ccccc2)cc1`, the CD [1] was 10 µM.
With `CC1(C)CC[C@]2(C(=O)O)CC[C@]3(C)C(C(=O)C=C4[C@@]5(C)C=CC(=O)C(C)(C)[C@@H]5CC[C@]43C)[C@@H]2C1` (some centres undefined) the CD [1] was 0.28 µM.
For `O=[N+]([O-])c1ccc(Sc2nnc(COc3ccccc3)[nH]2)nc1`, the CD [1] was 7.5 µM.
Molecule `[H]/N=C(\N/C(=N/[H])NCCCCCCNC(=N)NC(=N)Nc1ccc(Cl)cc1)Nc1ccc(Cl)cc1` [CHLORHEXIDINE] has a pKd (Keap1/Nrf2 [4]) of over 4.52.
Work on `COc1ccccc1S(=O)(=O)/C=C/c1ccccc1F` yielded an Activity (BV-2) of 24%.
For `O=[N+]([O-])c1ccc(Sc2nnc(Cc3ccccc3)n2-c2ccccc2)nc1`, the CD [1] was 0.3 µM.
In the case of `CC(=O)O[C@H]1CC(C)(C)C(=C=C/C(C)=C/C=C/C(C)=C/C=C/C=C(C)/C=C/C=C(\C)C(=O)C[C@@]23O[C@]2(C)C[C@@H](O)CC3(C)C)[C@](C)(O)C1`, the fold change (FC) [5] was 2.39, the fold change (FC) [6] was 2.39 and the fold change (FC) [7] was 2.02.
In the case of `CC1(C)CC[C@]2(C(=O)O)CC[C@]3(C)C(C(=O)C=C4[C@@]5(C)C=C(C(=O)O)C(=O)C(C)(C)[C@@H]5CC[C@]43C)[C@@H]2C1` (some centres undefined), the CD [1] was 0.22 µM.
`COC(=O)[C@]12CCC(C)(C)C[C@H]1C1C(=O)C=C3[C@@]4(C)C=C(C#N)C(=O)C(C)(C)[C@@H]4CC[C@@]3(C)[C@]1(C)CC2` (some centres undefined) gave a CD [1] of 0.001 µM.
With `COc1ccccc1S(=O)(=O)/C=C/c1ccc(Cl)cc1` the Activity (BV-2) was 31.5%.
`C=CCSC(=O)/C=C/c1ccc(O)c(O)c1` showed a pIC50 [8] of 4.90.
